Square brackets hold non-standard residues; d marks the D form. Ends that are not written are not given here. Peptide text beside a SMILES is read from it. Phe(4-CH2NH2) = NCc1ccc(C[C@H](N)C(=O)O)cc1; hArg = N=C(N)NCCCC[C@H](N)C(=O)O; Cit = NC(=O)NCCC[C@H](N)C(=O)O; Agb = N=C(N)NCC[C@H](N)C(=O)O; Agp = N=C(N)NC[C@H](N)C(=O)O; Dab = NCC[C@H](N)C(=O)O; Dap = NC[C@H](N)C(=O)O
Test system: recombinant rat NRP-1/Fc chimera
Experiment: not given
Parameters: method as in Starzec et al. 2007
Conditions: 125I-VEGF, ref Starzec et al. 2007; cited from earlier work

Compound | inhibition at 100 μM
Ala-Thr-Trp-Leu-Pro-Pro6 (ATWLPP; printed: Ala-Thr-Trp-Leu-Pro-Pro) [Compound D2] | 18%
Ala-Thr-Trp-Leu-Pro-Pro-Ala7 (ATWLPPA; printed: Ala-Thr-Trp-Leu-Pro-Pro-Ala) [Compound D3] | 17%
Ala-Thr-Trp-Leu-Pro-Pro-Lys7 (ATWLPPK; printed: Ala-Thr-Trp-Leu-Pro-Pro-Lys) [Compound D4] | 20%
Ala-Thr-Trp-Leu-Pro-Pro-Lys7-Ala8 (ATWLPPK; C-terminal Ala8; printed: Ala-Thr-Trp-Leu-Pro-Pro-Lys) [Compound D5] | 18%

Test system: not given
Experiment: not given
Parameters: method as in Tymecka et al. [2018]
Conditions: ref Tymecka et al. [2018]; cited from earlier work

Compound | t½ (stability)
N=C(N)NCCCC[C@H](N)C(=O)NCCCC[C@H](N)C(=O)N[C@@H](CN)C(=O)N1CCC[C@H]1C(=O)N[C@@H](CCCNC(=N)N)C(=O)O [Compound 1, Lys(Har)-Dap-Pro-Arg] (H-K(hArg)[Dap]PR-OH) | > 24 h
N=C(N)NCCCC[C@H](N)C(=O)NCCCC[C@H](N)C(=O)N[C@@H](CCN)C(=O)N1CCC[C@H]1C(=O)N[C@@H](CCCNC(=N)N)C(=O)O [Compound 2, Lys(Har)-Dab-Pro-Arg] (H-K(hArg)[Dab]PR-OH) | > 24 h

Target: T1, VEGF-A165/NRP-1 complex (Homo sapiens, UniProt O14786)
T1 construct: purchased BioLegend (NRP-1); Abcam (biotinylated VEGF-A165)
T1 sequence (O14786 22-641 limits assumed): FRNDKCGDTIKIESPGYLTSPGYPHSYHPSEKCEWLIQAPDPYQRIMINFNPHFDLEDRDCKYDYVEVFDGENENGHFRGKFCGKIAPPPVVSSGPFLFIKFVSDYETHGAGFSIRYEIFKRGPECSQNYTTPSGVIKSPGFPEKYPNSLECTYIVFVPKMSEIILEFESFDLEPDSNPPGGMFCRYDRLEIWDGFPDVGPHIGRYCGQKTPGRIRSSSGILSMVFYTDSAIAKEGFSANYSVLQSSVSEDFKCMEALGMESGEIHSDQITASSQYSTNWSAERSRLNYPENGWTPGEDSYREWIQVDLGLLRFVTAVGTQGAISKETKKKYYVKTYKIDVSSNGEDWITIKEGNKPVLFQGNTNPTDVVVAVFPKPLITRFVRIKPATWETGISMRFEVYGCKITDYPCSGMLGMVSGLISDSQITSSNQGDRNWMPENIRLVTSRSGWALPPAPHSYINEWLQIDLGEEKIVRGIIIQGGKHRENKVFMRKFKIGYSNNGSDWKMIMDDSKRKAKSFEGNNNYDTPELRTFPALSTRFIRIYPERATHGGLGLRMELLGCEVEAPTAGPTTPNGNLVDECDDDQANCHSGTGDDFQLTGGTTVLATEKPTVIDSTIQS
Experiment: competitive ELISA: inhibition of (bt)-VEGF-A165 binding to NRP-1
Conditions: recombinant human NRP-1; mean ± SD of three independent experiments; tested in the concentrations range 100–3.12 μM
Method: Inhibitory activity of the synthesized peptides was measured by a competitive ELISA test, following a protocol similar to the one previously described (Puszko et al. [2019]). […] Nonspecific binding was blocked with 0.5% BSA (BioShop, Canada) in PBS (Bioshop, Canada). Then, 50 μl peptide in PBS in the selected concentrations and 50 μl (400 ng/ml) human […] VEGF-A165 (Abcam, Cambridge, UK) in PBS containing 4 μg/ml heparin (Bioshop, Canada) were added. After 2 h of incubation at RT, the plate was washed and treated with ECL Streptavidin-Horseradish Peroxidase conjugate (GE Healthcare, Little Chalfont, UK) in PBS (1:100) for 45 min. After the final wash the chemiluminescence was quantified immediately after addition of 100 μl chemiluminescent substrate (SuperSignal ELISA Pico Chemiluminescent Substrate; Pierce Biotechnology, Rockford, IL, USA). Wells incubated with (bt)-VEGF-A165 served as a positive control (P), while wells not-coated with NRP-1 were used as a negative control (NS). […] Half-maximal inhibitory concentration (IC50, [μM]) values (mean ± SD of three independent experiments were determined by nonlinear regression analysis (log(inhibitor) vs. normalized response-variable slope) generated in GraphPad Prism 9.0.0 program (Graph Pad, San Diego, CA, USA). In order to verify the accuracy of the design assumptions, a modified competitive enzyme-linked immunosorbent assay (ELISA) was used to evaluate the inhibitory activity of the designed peptidomimetics against VEGF-A165/NRP-1 complex formation. In addition to the parent compounds (1 and 2), heptapeptide […] was used for the sake of comparison.

IC50 | Compound
8.4 ± 1.6 µM | N=C(N)NCCCC[C@H](N)C(=O)NCCCC[C@H](N)C(=O)N[C@@H](CN)C(=O)N1CCC[C@H]1C(=O)N[C@@H](CCCNC(=N)N)C(=O)O [Compound 1, Lys(Har)-Dap-Pro-Arg] (H-K(hArg)[Dap]PR-OH)
4.7 ± 0.6 µM | N=C(N)NCCCC[C@H](N)C(=O)NCCCC[C@H](N)C(=O)N[C@@H](CCN)C(=O)N1CCC[C@H]1C(=O)N[C@@H](CCCNC(=N)N)C(=O)O [Compound 2, Lys(Har)-Dab-Pro-Arg] (H-K(hArg)[Dab]PR-OH)
29.2 ± 1.8 µM | N=C(N)NCCCC[C@H](NC(=O)[C@@H]1CCCN1C(=O)[C@H](CN)NC(=O)[C@@H](N)CCCCNC(=O)[C@@H](N)CCCCNC(=N)N)C(=O)O [Compound 3, Lys(Har)-Dap-Pro-Har] (H-K(hArg)[Dap]P[hArg]-OH)
14.3 ± 2.3 µM | N=C(N)NCCCC[C@H](NC(=O)[C@@H]1CCCN1C(=O)[C@H](CCN)NC(=O)[C@@H](N)CCCCNC(=O)[C@@H](N)CCCCNC(=N)N)C(=O)O [Compound 4, Lys(Har)-Dab-Pro-Har] (H-K(hArg)[Dab]P[hArg]-OH)
87.5 ± 10.3 µM | N=C(N)NCCCC[C@H](N)C(=O)NCCCC[C@H](N)C(=O)N[C@@H](CN)C(=O)N1CCC[C@H]1C(=O)N[C@@H](CCNC(=N)N)C(=O)O [Compound 5, Lys(Har)-Dap-Pro-Agb] (H-K(hArg)[Dap]P[Agb]-OH)
106 ± 17.4 µM | N=C(N)NCCCC[C@H](N)C(=O)NCCCC[C@H](N)C(=O)N[C@@H](CCN)C(=O)N1CCC[C@H]1C(=O)N[C@@H](CCNC(=N)N)C(=O)O [Compound 6, Lys(Har)-Dab-Pro-Agb] (H-K(hArg)[Dab]P[Agb]-OH)
148 ± 45.9 µM | N=C(N)NCCCC[C@H](N)C(=O)NCCCC[C@H](N)C(=O)N[C@@H](CN)C(=O)N1CCC[C@H]1C(=O)N[C@@H](CNC(=N)N)C(=O)O [Compound 7, Lys(Har)-Dap-Pro-Agp] (H-K(hArg)[Dap]P[Agp]-OH)
165 ± 21.1 µM | N=C(N)NCCCC[C@H](N)C(=O)NCCCC[C@H](N)C(=O)N[C@@H](CCN)C(=O)N1CCC[C@H]1C(=O)N[C@@H](CNC(=N)N)C(=O)O [Compound 8, Lys(Har)-Dab-Pro-Agp] (H-K(hArg)[Dab]P[Agp]-OH)
170 ± 55.6 µM | N=C(N)NCCCC[C@H](N)C(=O)NCCCC[C@H](N)C(=O)N[C@@H](CN)C(=O)N1CCC[C@H]1C(=O)N[C@@H](CCCNC(N)=O)C(=O)O [Compound 9, Lys(Har)-Dap-Pro-Cit] (H-K(hArg)[Dap]P[Cit]-OH)
193 ± 20.6 µM | N=C(N)NCCCC[C@H](N)C(=O)NCCCC[C@H](N)C(=O)N[C@@H](CCN)C(=O)N1CCC[C@H]1C(=O)N[C@@H](CCCNC(N)=O)C(=O)O [Compound 10, Lys(Har)-Dab-Pro-Cit] (H-K(hArg)[Dab]P[Cit]-OH)
22.8 ± 5.9 µM | N=C(N)NCCCC[C@H](N)C(=O)NCCCC[C@H](N)C(=O)N[C@@H](CN)C(=O)N1CCC[C@H]1C(=O)N[C@@H](Cc1ccc(CN)cc1)C(=O)O [Compound 11, Lys(Har)-Dap-Pro-Phe(4-CH2-NH2)] (H-K(hArg)[Dap]P[Phe(4-CH2NH2)]-OH)
19.8 ± 1.8 µM | N=C(N)NCCCC[C@H](N)C(=O)NCCCC[C@H](N)C(=O)N[C@@H](CCN)C(=O)N1CCC[C@H]1C(=O)N[C@@H](Cc1ccc(CN)cc1)C(=O)O [Compound 12, Lys(Har)-Dab-Pro-Phe(4-CH2-NH2)] (H-K(hArg)[Dab]P[Phe(4-CH2NH2)]-OH)
11.3 ± 3.2 µM | ATWLPPR [Compound A7R, Ala-Thr-Trp-Leu-Pro-Pro-Arg]

Target: NRP1-b1
Experiment: not given
Parameters: method as in Mota et al. 2018
Conditions: SPR; ref Mota et al. 2018; cited from earlier work

Compound | Kd
CC(C)(C)OC(=O)N[C@@H](CCCN=C(N)N)C(=O)O [Compound D9, Nα-Boc-Arg-OH] | 3 µM
NC(N)=NCCC[C@H](NC(=O)OCc1ccccc1)C(=O)O [Compound D10, Nα-Cbz-Arg-OH] | 17 µM
NC(N)=NCCC[C@H](NC(=O)c1ccccc1)C(=O)O [Compound D11, Nα-benzoyl-Arg-OH] | 24 µM

Test system: PAE/NRP1 cells
Experiment: not given
Parameters: method as in Jarvis et al. 2010
Conditions: 100 μM; 125I-VEGF; ref Jarvis et al. 2010; cited from earlier work

Compound | inhibition at 100 μM
NC(N)=NCCC[C@H](NC(=O)c1sccc1NS(=O)(=O)c1cccc2nsnc12)C(=O)O [Compound D12] | 99%
KPA[dR] [Compound D7] | 22%
Lys-Pro-Ala-Arg (KPAR; printed: Lys-Pro-Ala-Arg) [Compound D6] | 83%
Lys-Pro-Ala-Lys (KPAK; printed: Lys-Pro-Ala-Lys) [Compound D8] | 22%

Same assay, conditions: 125I-VEGF; ref Jarvis et al. 2010; cited from earlier work

Compound | IC50
NC(N)=NCCC[C@H](NC(=O)c1sccc1NS(=O)(=O)c1cccc2nsnc12)C(=O)O [Compound D12] | 8 µM
Lys-Pro-Ala-Arg (KPAR; printed: Lys-Pro-Ala-Arg) [Compound D6] | 30 µM

Source: publication PMC11344719, “Peptidomimetic inhibitors of the VEGF-A165/NRP-1 complex obtained by modification of the C-terminal arginine” (Amino Acids, 2024)
